Values quoted from earlier work in patent publication US20230025452A1, “ANTICANCER COMBINATION THERAPY” (Boehringer Ingelheim International GmbH, priority 2017, published 2023).

What was measured:
[1] = tested on: solid tumor xenograft models and acute lymphoblastic leukemia (ALL) xenograft models; settings: Carol et al. 2013
[2] = tested on: human acute myeloid leukemia (AML) and human prostate tumor xenograft models harboring p53 wild-type; settings: Tovar et al. 2013

For `CCOc1cc(C(C)(C)C)ccc1C1=N[C@@](C)(c2ccc(Cl)cc2)[C@@](C)(c2ccc(Cl)cc2)N1C(=O)N1CCN(CCCS(C)(=O)=O)CC1` [RG-7112], the efficacy ([1]; ALL xenograft models with MLL rearrangement) is listed as “particularly efficacious”, the tumor growth inhibition ([1]; solid tumor xenograft models) is listed as “induced tumor growth inhibition” and the “antiproliferative and proapoptotic activity” value [2] is listed as “antiproliferative and proapoptotic activity”.
